# Reference: patent US20130136772A1, “REGULATION OF IMMUNE RESPONSE BY COLOCYNTHIN AND/OR ITS DERIVATIVES” (priority 2010, published 2013)
# Tests used:
# [1] = tested on: Nitric oxide (NO); experiment: In vivo nitric oxide estimation in serum of LPS challenged mice; parameters: species or system balb/c mice; details: 1, 2.5, 5 and 10 mg/kg oral for 6 days, LPS 1 mg/kg i.v., serum 90 min after LPS
# Method: (§1) Invivo experiments were carried out using balb/c mice that were orally administrated with graded oral doses of AD-B-63B (1, 2.5, 5 and 10 mg/kg) for 6 days and challenged with LPS. Nitric oxide (NO) is an important mediator of diverse physiologic and pathologic processes, including many inflammatory diseases [Abramson S B, Amin A R, Clancy R M, Attur M, (2001). The role of nitric oxide in tissue destruction. Best Practice & Research Clinical Rheumatology; 15: 831-845]. Several lines of evidence implicate NO in the pathogenesis of inflammation. For example, rodents in animal models of arthritis generate abundant quantities of NO, as reflected in high levels of serum and urinary NO that develop in association with disease manifestations [Stefanovic-Racic M, Meyers K, Meschter C, Coffey J W, Hoffman R A, Evans C H, (1994). Monomethyl arginine, an inhibitor of nitric oxide synthase, suppresses the development of adjuvant arthritis in rats. Arthritis & Rheumatism; 37: 1062-1069.] [McCartney-Francis N, Allen J B, Mizel D E, Albina J E, Xie Q W, Nathan C F, Wahl S M, (1993). Suppression of arthritis by an inhibitor of nitric oxide synthase. Journal of Experimental Medicine; 178: 749-754.] [Weinberg J B, (1998). […] TNF-α, IL-1 beta and Nitric oxide production was evaluated by a commercial ELISA kits (R&D Systems) in serum from AD-B-63B treated mice, 90 min after LPS injection.
# [2] = tested on: IL-1 beta; experiment: In vivo IL-1 beta estimation in serum of LPS challenged mice; parameters: species or system balb/c mice; details: 1, 2.5, 5 and 10 mg/kg oral for 6 days, LPS 1 mg/kg i.v., serum 90 min after LPS
# Method: as §1
# [3] = tested on: TNF-α; experiment: In vivo TNF-α estimation in serum of LPS challenged mice; parameters: species or system balb/c mice; details: 1, 2.5, 5 and 10 mg/kg oral for 6 days, LPS 1 mg/kg i.v., serum 90 min after LPS
# Method: as §1
# [4] = tested on: IL-4; experiment: Intracellular IL-4 expression in SRBC immunised mice; format: in vivo, Swiss albino mice; details: graded doses; significantly inhibited at 2.5, 5 and 10 mg/kg
# Method: Estimation of intracellular cytokines: The animals were immunized as mentioned above. After 6 days of drug administration, the animals were challenged on day 7. After 48 h of challenge, the blood was collected in the tubes containing EDTA (anti-coagulant) from retro-orbital plexes of animals to determine the effect of test material on the expression of intracellular IL-2 and IFN-γ (Th1) and IL-4 (Th2) cytokines. In this study, PE labeled IL-2 monoclonal antibody was used in one set and PE labeled IFN-γ and FITC labelled IL-4 monoclonal antibody was used in the other set of experimentation (FIG. 7, 8, 9).
smiles,measurement,setting,value
"CC(=O)OC(C)(C)/C=C/C(=O)[C@](C)(O)[C@H]1[C@H](O)C[C@@]2(C)[C@@H]3CC=C4[C@@H](C=C(O[C@@H]5O[C@H](CO)[C@@H](O)[C@H](O)[C@H]5O)C(=O)C4(C)C)[C@]3(C)C(=O)C[C@]12C [AD-B-63B, 2-O-β-D-glucopyranosyl cucurbitacin E]",Level of serum NO,[1],significant reduction
same,Level of serum IL-1 beta,[2],significant reduction
same,Level of serum TNF-α,[3],significant reduction
same,expression of intracellular IL-4,[4],decrease
